Results: patent publication US6121330A, “5-Hydroxyalkyl substituted phenyls and their use in medicaments for the treatment of arteriosclerosis and hyperlipoproteinaemia” (Bayer Aktiengesellschaft, priority 1997, dated 2000)

How the values were obtained:
[1] = molecular target: T1, cholesterol ester transfer protein (CETP) (Homo sapiens, UniProt P11597); assay: CETP inhibition testing (transfer of 3H-cholesterol ester from human HD lipoproteins to biotinylated LD lipoproteins); format: biochemical; conditions: CETP partially purified from human plasma; 3H-cholesterol ester transfer HDL to biotin-LDL, 37° C., 18 h
T1 construct: CETP is obtained from human plasma in partially purified form by differential centrifugation and column chromatography; from tissue; host or cells: human plasma
T1 sequence (P11597 18-493): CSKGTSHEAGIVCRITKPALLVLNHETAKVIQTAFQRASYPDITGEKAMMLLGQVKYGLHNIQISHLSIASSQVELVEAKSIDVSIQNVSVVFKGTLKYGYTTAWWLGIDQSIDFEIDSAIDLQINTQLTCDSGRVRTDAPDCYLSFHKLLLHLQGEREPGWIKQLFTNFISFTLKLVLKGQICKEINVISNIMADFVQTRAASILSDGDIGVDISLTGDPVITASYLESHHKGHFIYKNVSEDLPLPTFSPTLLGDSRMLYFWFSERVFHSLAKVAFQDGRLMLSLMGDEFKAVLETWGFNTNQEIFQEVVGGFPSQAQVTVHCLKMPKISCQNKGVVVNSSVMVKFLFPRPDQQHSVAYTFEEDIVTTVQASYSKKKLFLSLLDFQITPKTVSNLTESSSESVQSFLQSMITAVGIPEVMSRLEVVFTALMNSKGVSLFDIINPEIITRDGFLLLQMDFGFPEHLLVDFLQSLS
Protocol: CETP is obtained from human plasma in partially purified form by differential centrifugation and column chromatography and used for the test. To this end, human plasma is adjusted to a density of 1.21 g per ml using NaBr and centrifuged at 4° C. for 18 h at 50,000 rpm. The bottom fraction (d>1.21 g/ml) is applied to a Sephadex®phenyl-sepharose 4B (Pharmacia) column, washed with 0.15 M NaCl/0.001 M trisHCl pH 7.4 and then eluted with distilled water. The CETP-active fractions are pooled, dialyzed against 50 mM Na acetate pH 4.5 and applied to a CM-Sepharose® (Pharmacia) column. The column is then eluted using a linear gradient (0-1 M NaCl). The pooled CETP fractions are dialyzed against 10 mM tris HCl pH 7.4 and then further purified by chromatography on a Mono Q® column (Pharmacia).
Obtainment of Radiolabelled HDL
50 ml of fresh human EDTA plasma is adjusted to a density of 1.12 using NaBr and centrifuged at 50,000 rpm for 18 h at 4° C. in a Ty 65 rotor. The upper phase is used to obtain cold LDL. The lower phase is dialyzed against 3×4 l of PDB buffer (10 mM tris/HCl pH 7.4, […], 1 mM EDTA, 0.02% NaN3). 20 μl of 3H-cholesterol (Dupont NET-725; 1 μC/μl dissolved in ethanol!) are then added per 10 ml of retentate volume and the mixture is incubated under N2 at 37° C. for 72 h. […]
To test the CETP activity, the transfer of ^3 H-cholesterol ester from human HD lipoproteins to biotinylated LD lipoproteins is measured.
The reaction is ended by addition of streptavidin-SPA® beads (Amersham) and the transferred radioactivity is determined directly in a liquid scintillation counter.
In the test mixture, 10 μl of HDL-^3 H-cholesterol ester (~50,000 cpm) are incubated at 37° C. for 18 h with 10 μl of biotin-LDL (Amersham) in 50 mM Hepes/0.15 M NaCl/0.1% bovine serum albumin/0.05% NaN3 pH 7.4 with 10 μl of CETP (1 mg/ml) and 3 μl of solution of the substance to be tested dissolved (in 10% DMSO/1% RSA). 200 μl of the SPA-streptavidin bead solution (TRKQ 7005) are then added, the mixture is incubated further for 1 h with shaking and then measured in the scintillation counter. […]

[2] = system: HDL cholesterol; assay: HDL rise in in vivo experiments (oral administration); parameters: species or system Syrian golden hamster; conditions: oral (stomach tube), 2 × 30 mg/kg/d
Protocol: In Vivo Activity of the Compounds According to the Invention
In experiments to determine the oral action on lipoproteins and triglycerides, test substance dissolved in DMSO and 0.5% Tylose suspended by means of a stomach tube are administered orally to Syrian golder hamsters from in-house breeding. To determine the CETP activity, blood (about 250 μl) is taken by retroorbital puncture before the start of the experiment. The test substances are then administered orally by means of a stomach tube. The control animals receive identical volumes of solvent without test substance. […]
Clotting is ended by incubation at 4° C. overnight, then centrifugation at 6000×g is carried out for 10 minutes. In the serum thus obtained, the content of cholesterol and triglycerides is determined with the aid of modified commercially available enzyme tests (cholesterol enzymatic 14366 Merck, triglycerides 14364 Merck). […]
100 μl of serum dilution are mixed with 100 μl of […] in 96-hole plates and incubated at room temperature for 10 minutes. The optical density is then determined at a wavelength of 492 nm using an automatic plate-reading apparatus. The triglyceride or cholesterol concentration contained in the samples is determined with the aid of a standard curve measured in parallel. […]

IC50 [1]	Structure (SMILES)	% HDL rise [2]
90 nM	OCc1c(-c2ccc(F)cc2)cc(C2CCCC2)c(C(F)c2ccc(C(F)(F)F)cc2)c1-c1ccc(F)cc1 (stereo not shown) [Example 1]	–
100 nM	CC(C)c1cc(-c2ccc(F)cc2)c(CO)c(-c2ccc(F)cc2)c1C(F)c1ccc(C(F)(F)F)cc1 (stereo not shown) [Example 3]	21%
4000 nM	CC(C)c1cc(-c2ccc(F)cc2)c(CO)c(-c2ccc(F)cc2)c1C(=O)c1ccc(C(F)(F)F)cc1 [Example 4]	–
